Measurements as given in ChEMBL document CHEMBL1201862, “PubChem BioAssay data set” (2004).
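Following 48 hours of exposure in 96-well plates, responses at five concentrations were used to interpolate endpoints linearly. GI50 marks 50% less growth.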 Calls of active or inactive are those of the source. No stated cut-off is given here; in the data, active = GI50 up to about 1.1 µM and inactive = higher.

Assays:
Assay in all cases: DTP human tumour cell line panel, 48 h
MDA-N = tested on: MDA-N
MDA-MB-231 = tested on: MDA-MB-231
OVCAR-5 = tested on: OVCAR-5
OVCAR-4 = tested on: OVCAR-4
NCI/ADR-RES = tested on: NCI/ADR-RES
NCI-H522 = tested on: NCI-H522
OVCAR-3 = tested on: OVCAR-3
NCI-H460 = tested on: NCI-H460
SNB-19 = tested on: SNB-19
MCF7 = tested on: MCF7
HCC 2998 = tested on: HCC 2998
UO-31 = tested on: UO-31
HL-60 = tested on: HL-60
A549 = tested on: A549
RPMI-8226 = tested on: RPMI-8226
SF-295 = tested on: SF-295
HT-29 = tested on: HT-29
786-0 = tested on: 786-0
SK-MEL-28 = tested on: SK-MEL-28
K562 = tested on: K562

Measured: GI50

CC(C)C1C(=O)N2CCCC2C2(O)OC(NC(=O)C3C=C4c5cccc6[nH]cc(c56)CC4N(C)C3)(C(C)C)C(=O)N12 (configuration not stated)
inactive: MDA-N 25 µM | MDA-MB-231 15.9 µM | OVCAR-5 13.2 µM | OVCAR-4 18.3 µM | NCI/ADR-RES 21.1 µM | NCI-H522 21 µM | OVCAR-3 17.9 µM | NCI-H460 19 µM | SNB-19 44.4 µM | MCF7 35.8 µM | HCC 2998 19.7 µM | UO-31 13.5 µM | HL-60 27 µM | A549 20.7 µM | RPMI-8226 16.2 µM | SF-295 28.2 µM | HT-29 18 µM | 786-0 17.9 µM | SK-MEL-28 25.5 µM

CCOC(=O)c1cc2c3c(c(C(C)=O)c(OC)c2[nH]1)N(C(=O)CC)CC3
inactive: MDA-N 16.8 µM | MDA-MB-231 4.25 µM | OVCAR-5 27.7 µM | OVCAR-4 21.5 µM | NCI/ADR-RES 13.4 µM | K562 14.1 µM | OVCAR-3 14.5 µM | NCI-H460 16.7 µM | SNB-19 12.8 µM | MCF7 14.5 µM | HCC 2998 23.4 µM | UO-31 12.7 µM | HL-60 6.4 µM | A549 14 µM | RPMI-8226 5.13 µM | SF-295 19.3 µM | HT-29 16.6 µM | 786-0 17.5 µM | SK-MEL-28 15.3 µM

COc1c(-c2ccc3c(c2)OCO3)oc2cc(O)cc(O)c2c1=O
inactive: MDA-N 62.7 µM | MDA-MB-231 97.7 µM | OVCAR-5 > 100 µM | OVCAR-4 29.5 µM | NCI/ADR-RES 46 µM | NCI-H522 19.2 µM | K562 45.1 µM | NCI-H460 64 µM | SNB-19 > 100 µM | MCF7 21.6 µM | HCC 2998 78.9 µM | UO-31 7.19 µM | HL-60 41.5 µM | A549 47.3 µM | RPMI-8226 34 µM | SF-295 34.4 µM | HT-29 36.6 µM | 786-0 38.4 µM | SK-MEL-28 > 100 µM

CC(=O)OCC1OC(n2cnc(C(N)=S)c2N)C(OC(C)=O)C1OC(C)=O (configuration not stated)
inactive: MDA-N > 100 µM | MDA-MB-231 > 100 µM | OVCAR-5 > 100 µM | OVCAR-4 > 100 µM | NCI/ADR-RES > 100 µM | NCI-H522 > 100 µM | OVCAR-3 > 100 µM | NCI-H460 > 100 µM | SNB-19 > 100 µM | MCF7 > 100 µM | HCC 2998 > 100 µM | UO-31 > 100 µM | HL-60 > 100 µM | A549 > 100 µM | RPMI-8226 > 100 µM | SF-295 > 100 µM | HT-29 > 100 µM | 786-0 > 100 µM | SK-MEL-28 > 100 µM

COC(=O)c1ccccc1/C=C1/Cc2cccc(C)c2C1=O
inactive: MDA-N > 100 µM | MDA-MB-231 > 100 µM | OVCAR-5 > 100 µM | OVCAR-4 > 100 µM | NCI/ADR-RES > 100 µM | NCI-H522 > 100 µM | K562 > 100 µM | OVCAR-3 > 100 µM | NCI-H460 > 100 µM | MCF7 > 100 µM | HCC 2998 > 100 µM | UO-31 > 100 µM | HL-60 > 100 µM | A549 > 100 µM | RPMI-8226 > 100 µM | SF-295 42 µM | HT-29 > 100 µM | 786-0 36.2 µM | SK-MEL-28 > 100 µM

N#CCCC1(CCC#N)CCc2ccccc2C1=O
inactive: MDA-N > 100 µM | MDA-MB-231 > 100 µM | OVCAR-5 > 100 µM | OVCAR-4 > 100 µM | NCI/ADR-RES > 100 µM | NCI-H522 > 100 µM | K562 > 100 µM | OVCAR-3 > 100 µM | NCI-H460 > 100 µM | SNB-19 > 100 µM | MCF7 > 100 µM | HCC 2998 > 100 µM | UO-31 > 100 µM | HL-60 > 100 µM | RPMI-8226 > 100 µM | HT-29 > 100 µM | 786-0 > 100 µM | SK-MEL-28 > 100 µM

O=c1ccc2[n+]([O-])c3ccc(O)cc3oc-2c1 [RESAZURIN]
inactive: MDA-N 1.84 µM | MDA-MB-231 29.6 µM | OVCAR-5 23.6 µM | OVCAR-4 23.4 µM | NCI/ADR-RES 13.4 µM | NCI-H522 12.1 µM | K562 10.5 µM | OVCAR-3 13.2 µM | NCI-H460 12.3 µM | MCF7 4.95 µM | HCC 2998 34.6 µM | UO-31 1.93 µM | HL-60 23.1 µM | A549 4.31 µM | RPMI-8226 6.01 µM | SF-295 7.41 µM | HT-29 19.6 µM | 786-0 12.5 µM | SK-MEL-28 10.2 µM
